# Reference: patent US12109231B2 (Neuvivo, Inc., priority 2015, dated 2024)
# Where two headings read alike, the source gives them in different places.
# Legend:
# [1] = tested on: monocyte/macrophage activation; details: in vitro
# [2] = tested on: monocyte/macrophage activation; details: in vivo
# LPS = details: Phase 2, responders positive for LPS at baseline
# Text: (§1) These clinical data provided compelling rationale to test […] in pre-clinical models of Parkinson's disease to investigate its brain penetrance, ability to modulate microglia activation and peripheral immune cell infiltration to the CNS, and protect vulnerable neuronal populations from synuclein-induced degeneration.
# ALS patients = tested on: ALS patients
# Text: as §1
# IL-18 = details: Phase 2, responders with elevated IL-18 at baseline
# Text: as §1
# markers of inflammation = details: ALS patients, after a single dose
# [3] = tested on: G93A SOD-1 mt. mouse model of ALS; details: SOD-1 mutant mice, 2 mg/kg intravenously every three weeks
# Description: Chlorite composition administration and survival studies have been done in G93A SOD-1 mt. mouse model of ALS. In this model, the SOD-1 mutant mice begin developing degeneration of neurologic function starting at approximately 70 days of age. The mice were dosed with chlorite composition at 2 mg/kg intravenously every three weeks with neuroscore and survival information being collected weekly.
# [4] = tested on: patient with posttraumatic stress disorder
# Text: (§2) Plasma/serum samples are obtained and submitted to a lab-based immunoassay to quantify inflammatory markers in the plasma/serum sample. Inflammatory markers are compared to the patient's pre-treatment levels of plasma/serum inflammatory markers.
# patient with autism = tested on: patient with autism
# Text: as §2
# patient with depression = tested on: patient with depression
# Text: as §2
# [5] = tested on: patient with schizophrenia
# Text: as §2
# [6] = tested on: patient with bipolar disorder
# Text: as §2
substance,measurement,setting,value
sodium chlorite,markers of monocyte/macrophage activation,[1],reversed
same,markers of monocyte/macrophage activation,[2],reversed
same,LPS in responders following treatment,LPS,decreased following treatment
same,symptom progression in a subset of patients,ALS patients; Phase 2,may have dose-dependently halted symptom progression
same,slower rate of progression than placebo patients,"ALS patients; Phase 2, 2 mg/kg, patients above the median wr-CRP, six months of study",44%
same,dose dependence of disease progression in patients with above the median wr-CRP value,"ALS patients; Phase 2, baseline wr-CRP above 1125 ng/ml",dose dependent slowing of disease progression
same,patients who did not progress / stopped progressing,"ALS patients; Phase 2, high dose (2 mg/kg), six months of treatment",25%
same,number of non-progressing patients relative to placebo,"ALS patients; Phase 2, high dose, six months of treatment",More than 2 times
same,progression in patients with greater inflammation (higher CRP),"ALS patients; Phase 2, high-dose group",slowing of progression was observed
same,IL-18 in responders following treatment,IL-18,decreased following treatment
same,markers of inflammation,markers of inflammation,decrease markers of inflammation
same,survival compared with sham treated animals,[3],almost three weeks longer
same,neurologic degeneration (neuroscore),[3]; vs sham,delayed by a similar time
same,reduction of the difference between ALS and normal control level of monocyte CD16 expression toward the normal value,"monocyte CD16; 24 hours after one dose, compared with baseline pretreatment levels",approximately 50%
same,level of CD16 expression on the CD16 bright subset of monocytes,monocyte CD16; chlorite treated patients compared to placebo,Dose-dependent changes
same,behavioral and/or neurophysical symptoms of posttraumatic stress disorder,[4]; after weekly injection,found to be reduced
same,levels of plasma/serum inflammatory markers after treatment,"[4]; posttraumatic stress disorder, vs pre-treatment levels",reduced
same,behavioral and/or neurophysical symptoms of autism,patient with autism; after weekly injection,found to be reduced
same,levels of plasma/serum inflammatory markers after treatment,"patient with autism; autism, vs pre-treatment levels",reduced
same,behavioral and/or neurophysical symptoms of depression,patient with depression; after weekly injection,found to be reduced
same,levels of plasma/serum inflammatory markers after treatment,"patient with depression; depression, vs pre-treatment levels",reduced
same,behavioral and/or neurophysical symptoms of schizophrenia,[5]; after weekly injection,found to be reduced
same,levels of plasma/serum inflammatory markers after treatment,"[5]; schizophrenia, vs pre-treatment levels",reduced
same,behavioral and/or neurophysical symptoms of bipolar disorder,[6]; after weekly injection,found to be reduced
same,levels of plasma/serum inflammatory markers after treatment,"[6]; bipolar disorder, vs pre-treatment levels",reduced
